Reference: publication PMC7503500, “A Structure-Activity Relationship Comparison of Imidazodiazepines Binding at Kappa, Mu, and Delta Opioid Receptors and the GABAA Receptor” (Molecules, 2020)
Like-named read-outs stand apart in the source and are kept apart here.

What was measured:
δ opioid receptor (DOR) = δ opioid receptor (DOR) (Homo sapiens, UniProt P41143); assay: Radioligand competition binding, DOR ([3H]-DADLE), HEK293 cell homogenates; details: for inhibition at 10 µM: read-out: DOR % (percent inhibition), at 10,000 nM; for DOR % (percent inhibition): at 10,000 nM
κ opioid receptor (KOR) = κ opioid receptor (KOR) (Homo sapiens, UniProt P41145); assay: Radioligand competition binding, KOR ([3H]-U69593), HEK293 cell homogenates; details: for inhibition at 10 µM: read-out: KOR % (percent inhibition), at 10,000 nM; for inhibition at 10 µM / KOR % (percent inhibition): [3H]-U69593; for KOR % (percent inhibition): at 10,000 nM
[1] = test system: synaptic benzodiazepine-sensitive receptors (BZR), GABAAR; assay: 3H-flunitrazepam binding, rat brain homogenate; details: for BZR % (percent inhibition): at 10,000 nM; for Ki: read-out: BZR (Ki)
µ opioid receptor (MOR) = µ opioid receptor (MOR) (Homo sapiens, UniProt P35372); assay: Radioligand competition binding, MOR ([3H]-DAMGO), HEK293 cell homogenates; details: [3H]-DAMGO; for inhibition at 10 µM: read-out: MOR % (percent inhibition), at 10,000 nM; for MOR % (percent inhibition): at 10,000 nM
[2] = read-out: KOR (Ki), [3H]-U69593, HEK293 homogenates

Structure (SMILES)	inhibition at 10 µM (δ opioid receptor (DOR))	Ki (κ opioid receptor (KOR))	inhibition at 10 µM (κ opioid receptor (KOR))	BZR % (percent inhibition) [1]	Ki [1]	inhibition at 10 µM (µ opioid receptor (MOR))	DOR % (percent inhibition) (δ opioid receptor (DOR))	KOR % (percent inhibition) (κ opioid receptor (KOR))	Ki (κ opioid receptor (KOR); [2])	MOR % (percent inhibition) (µ opioid receptor (MOR))	Ki (µ opioid receptor (MOR); read-out: MOR Ki, HEK293 homogenates)	Affinity towards KOR as % of the GL-I-30-KOR binding affinity (κ opioid receptor (KOR))
C#Cc1ccc2c(c1)C(c1ccccc1F)=N[C@@H](C)c1c(C(=O)NC3CC3)ncn1-2 [GL-I-55]	24%	150 nM	93%	95%	20 nM	17%	–	–	–	–	–	–
C#Cc1ccc2c(c1)C(c1ccccc1F)=N[C@@H](C)c1c(C(=O)OCC(F)(F)F)ncn1-2 [GL-I-36]	0%	411 nM	85%	77%	418 nM	8%	–	–	–	–	–	–
C#Cc1ccc2c(c1)C(c1ccccn1)=NCc1c(-c3nc(C)no3)ncn1-2 [MP-III-085]	0%	–	40%	82%	357 nM	0%	–	–	–	–	–	–
Cc1ncoc1-c1ncn2c1CN=C(c1ccccc1)c1cc(Br)ccc1-2 [KRM-III-66]	11%	756 nM	67%	86%	49 nM	12%	–	–	–	–	–	–
Cc1noc(-c2ncn3c2[C@@H](C)N=C(c2ccccc2F)c2cc(C4CC4)ccc2-3)n1 [GL-III-63]	–	–	–	28%	–	–	31%	78%	678 nM	8%	–	–
C#Cc1ccc2c(c1)C(c1ccccc1F)=NCc1c(C(=O)OCc3ccccc3)ncn1-2 [MP-II-075]	16%	–	84%	98%	21 nM	0%	–	–	547 nM	–	–	–
C#Cc1ccc2c(c1)C(c1ccccn1)=NCc1c(-c3ocnc3C)ncn1-2 [KRM-III-79]	1%	–	9%	81%	308 nM	32%	–	–	–	–	–	–
C#Cc1ccc2c(c1)C(c1ccccn1)=N[C@H](C)c1c(C(=O)OCC)ncn1-2 [GL-II-19]	2%	–	44%	71%	1140 nM	17%	–	–	–	–	–	–
C#Cc1ccc2c(c1)C(c1ccccc1F)=N[C@@H](C)c1c(-c3nc(C(C)C)no3)ncn1-2 [GL-I-81]	–	–	–	83%	839 nM	–	25%	93%	127 nM	64%	2920 nM	–
Cc1ncoc1-c1ncn2c1CN=C(c1ccccc1F)c1cc(Br)ccc1-2 [KRM-III-59]	11%	408 nM	73%	96%	20 nM	0%	–	–	–	–	–	–
C#Cc1ccc2c(c1)C(c1ccccc1F)=NCc1c(-c3cnco3)ncn1-2 [KRM-II-18B]	20%	361 nM	89%	97%	38 nM	11%	–	–	–	–	–	–
C#Cc1ccc2c(c1)C(c1ccccc1F)=NCc1c(-c3ocnc3C)ncn1-2 [KRM-III-65]	16%	879 nM	64%	96%	45 nM	0%	–	–	–	–	–	–
C#Cc1ccc2c(c1)C(c1ccccc1F)=N[C@H](C)c1c(C(=O)OC)ncn1-2 [MP-III-004]	24%	599 nM	76%	78%	445 nM	0%	–	–	–	–	–	–
CCOC(=O)c1ncn2c1[C@H](C)N=C(c1ccccc1F)c1cc(Br)ccc1-2 [SH-I-048B]	–	–	–	61%	96 nM	–	0%	95%	–	0%	–	–
C#Cc1ccc2c(c1)C(c1ccccc1F)=N[C@H](C)c1c(C(=O)NC3CC3)ncn1-2 [GL-II-75]	3%	278 nM	81%	85%	93 nM	0%	–	–	–	–	–	–
CCOC(=O)c1ncn2c1[C@@H](C)N=C(c1ccccn1)c1cc(Br)ccc1-2 [GL-II-06]	9%	401 nM	79%	81%	556 nM	11%	–	–	–	–	–	–
C#Cc1ccc2c(c1)C(c1ccccc1F)=N[C@@H](C)c1c(C(=O)OC(C)(C)CC)ncn1-2 [GL-I-33]	25%	34 nM	94%	96%	117 nM	30%	–	–	–	–	–	–

Structure (SMILES)	inhibition at 10 µM (δ opioid receptor (DOR))	Ki (κ opioid receptor (KOR))	inhibition at 10 µM (κ opioid receptor (KOR))	BZR % (percent inhibition) [1]	Ki [1]	inhibition at 10 µM (µ opioid receptor (MOR))	DOR % (percent inhibition) (δ opioid receptor (DOR))	KOR % (percent inhibition) (κ opioid receptor (KOR))	Ki (κ opioid receptor (KOR); [2])	MOR % (percent inhibition) (µ opioid receptor (MOR))	Ki (µ opioid receptor (MOR); read-out: MOR Ki, HEK293 homogenates)	Affinity towards KOR as % of the GL-I-30-KOR binding affinity (κ opioid receptor (KOR))
C#Cc1ccc2c(c1)C(c1ccccc1F)=N[C@@H](C)c1c(C(=O)OC)ncn1-2 [MP-III-021]	22%	122 nM	93%	88%	219 nM	0%	–	–	–	–	–	–
Cc1noc(-c2ncn3c2[C@@H](C)N=C(c2ccccc2F)c2cc(Br)ccc2-3)n1 [GL-III-60]	–	–	–	100%	784 nM	–	18%	87%	232 nM	26%	–	–
C#Cc1ccc2c(c1)C(c1ccccc1F)=N[C@@H](C)c1c(C(=O)NCC)ncn1-2 [GL-I-43]	3%	102 nM	95%	94%	44 nM	22%	–	–	–	–	–	–
Brc1ccc2c(c1)C(c1ccccc1)=NCc1c(-c3cnco3)ncn1-2 [KRM-II-73]	32%	736 nM	83%	97%	45 nM	11%	–	–	–	–	–	–
C#Cc1ccc2c(c1)C(c1ccccc1F)=N[C@@H](C)c1c(C(=O)NC(C)(C)C)ncn1-2 [GL-I-41]	10%	39 nM	97%	90%	140 nM	40%	–	–	–	–	–	–
C#Cc1ccc2c(c1)C(c1ccccn1)=NCc1c(-c3cnco3)ncn1-2 [KRM-III-67]	3%	–	48%	71%	144 nM	30%	–	–	–	–	–	–
C#Cc1ccc2c(c1)C(c1ccccc1F)=N[C@H](C)c1c(-c3nc(C(C)C)no3)ncn1-2 [MP-IV-010]	–	–	–	64%	814 nM	–	5%	94%	145 nM	33%	–	–
C#Cc1ccc2c(c1)C(c1ccccc1F)=N[C@H](C)c1c(C(=O)NC)ncn1-2 [MP-III-022]	22%	–	80%	95%	83 nM	3%	–	–	–	–	–	–
Cc1noc(-c2ncn3c2[C@@H](C)N=C(c2ccccn2)c2cc(C4CC4)ccc2-3)n1 [GL-III-64]	–	–	–	92%	1490 nM	–	14%	60%	2050 nM	7%	–	–
C#Cc1ccc2c(c1)C(c1ccccc1F)=N[C@@H](C)c1c(-c3cnco3)ncn1-2 [GL-III-78]	–	–	–	101%	261 nM	–	9%	74%	451 nM	10%	–	–
CCNC(=O)c1ncn2c1[C@@H](C)N=C(c1ccccc1F)c1cc(C3CC3)ccc1-2 [GL-III-68]	10%	150 nM	88%	100%	452 nM	0%	–	–	–	–	–	–
C#Cc1ccc2c(c1)C(c1ccccc1F)=N[C@@H](C)c1c(C(=O)O)ncn1-2 [SH-053-2′F-S-CH3-Acid]	18%	–	20%	93%	29 nM	0%	–	–	–	–	–	–
C#Cc1ccc2c(c1)C(c1ccccc1F)=N[C@H](C)c1c(-c3nc(C)no3)ncn1-2 [MP-IV-004]	–	–	–	63%	1080 nM	–	10%	86%	444 nM	7%	–	–
C[C@@H]1N=C(c2ccccc2F)c2cc(Br)ccc2-n2cnc(-c3cnco3)c21 [GL-III-76]	–	–	–	100%	120 nM	–	0%	83%	221 nM	3%	–	–
C#Cc1ccc2c(c1)C(c1ccccn1)=NCc1c(C(=O)OC(C)C)ncn1-2 [MP-II-068]	34%	550 nM	85%	97%	42 nM	0%	–	–	–	–	–	4.9%
C#Cc1ccc2c(c1)C(c1ccccc1F)=N[C@@H](C)c1c(C(=O)NC)ncn1-2 [MP-III-023]	16%	119 nM	91%	97%	37 nM	0%	–	–	–	–	–	–
C#Cc1ccc2c(c1)C(c1ccccn1)=NCc1c(C(=O)OCC)ncn1-2 [Hz-166]	49%	3820 nM	60%	–	–	6%	–	–	–	–	–	–
